# Test results from ChEMBL document CHEMBL1201861, “Genomics of Drug Sensitity in Cancer screening data, Wellcome Trust Sanger Institute”.
# What was measured:
# Assay in all cases: cells
# Settings in all cases: Homo sapiens
# CTB-1 = format: functional, cell-based
# Description: SANGER: Inhibition of human CTB-1 cell growth in a cell viability assay.
# KS-1 = format: functional, cell-based;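 also: growth inhibition of KS-1 cells, read out with a cell viability assay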
# Description: SANGER: Inhibition of human KS-1 cell growth in a cell viability assay.
# SNB-75 = format: functional, cell-based;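 also: cell viability assay measuring growth inhibition of human SNB-75 cells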
# Description: SANGER: Inhibition of human SNB75 cell growth in a cell viability assay.
# HOP-62 = format: functional, cell-based;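 also: cell growth inhibition determined with a viability assay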
# Description: SANGER: Inhibition of human HOP-62 cell growth in a cell viability assay.
# HuTu80 = format: functional, cell-based, HUTU-80;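 also: growth inhibition of HuTu80 human cells, determined with a cell viability readout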
# Description: SANGER: Inhibition of human HUTU-80 cell growth in a cell viability assay.
# ES3 = format: functional, cell-based;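 also: growth inhibition of ES3 cells, read out with a cell viability assay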
# Description: SANGER: Inhibition of human ES3 cell growth in a cell viability assay.
# MS-1 = format: functional, cell-based
# Description: SANGER: Inhibition of human MS-1 cell growth in a cell viability assay.
# NOMO-1 = format: functional, cell-based;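 also: growth inhibition of human NOMO-1 cells measured by a cell viability assay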
# Description: SANGER: Inhibition of human NOMO-1 cell growth in a cell viability assay.
# KP-N-YS = format: functional, cell-based;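 also: cell viability assay measuring inhibition of cell line growth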
# Description: SANGER: Inhibition of human KP-N-YS cell growth in a cell viability assay.
# NCI-H1648 = format: functional, cell-based;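 also: cell viability assay measuring inhibition of NCI-H1648 cell growth, from the Sanger screening data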
# Description: SANGER: Inhibition of human NCI-H1648 cell growth in a cell viability assay.
# A388 = format: functional, cell-based;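 also: growth inhibition of human A388 cells, read out with a cell viability assay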
# Description: SANGER: Inhibition of human A388 cell growth in a cell viability assay.
# SK-N-FI = format: functional, cell-based;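 also: cell viability assay measuring growth inhibition of human SK-N-FI cells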
# Description: SANGER: Inhibition of human SK-N-FI cell growth in a cell viability assay.
# KINGS-1 = format: functional, cell-based;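 also: cell viability assay measuring suppression of KINGS-1 cell growth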
# Description: SANGER: Inhibition of human KINGS-1 cell growth in a cell viability assay.
# SCC-15 = format: functional, cell-based;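 also: growth inhibition of SCC-15 cells, read out with a cell viability assay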
# Description: SANGER: Inhibition of human SCC-15 cell growth in a cell viability assay.
# GCIY = format: functional, cell-based;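 also: growth inhibition of the human GCIY cell line, read out by a cell viability assay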
# Description: SANGER: Inhibition of human GCIY cell growth in a cell viability assay.
# MHH-PREB-1 = format: functional, cell-based;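 also: cell viability assay measuring inhibition of proliferation of human MHH-PREB-1 cells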
# Description: SANGER: Inhibition of human MHH-PREB-1 cell growth in a cell viability assay.
# CAS-1 = format: functional, cell-based;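 also: growth inhibition of CAS-1 cells, measured with a cell viability assay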
# Description: SANGER: Inhibition of human CAS-1 cell growth in a cell viability assay.
# A3-KAW = format: functional, cell-based;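 also: growth inhibition of human A3-KAW cells, read out with a cell viability assay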
# Description: SANGER: Inhibition of human A3-KAW cell growth in a cell viability assay.
# Calu-6 = format: functional, cell-based;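 also: growth of human Calu-6 cells, read out by a cell viability assay, IC50 marking inhibition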
# Description: SANGER: Inhibition of human Calu-6 cell growth in a cell viability assay.
# DU-4475 = format: functional, cell-based
# Description: SANGER: Inhibition of human DU-4475 cell growth in a cell viability assay.
# ES5 = format: functional, cell-based;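 also: growth inhibition of human ES5 cells, read out by a cell viability assay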
# Description: SANGER: Inhibition of human ES5 cell growth in a cell viability assay.
# SJSA-1 = format: functional, cell-based;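 also: growth inhibition of human SJSA-1 cells, read out through a cell viability measurement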
# Description: SANGER: Inhibition of human SJSA-1 cell growth in a cell viability assay.
# LB1047-RCC = format: functional, cell-based;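 also: inhibition of cell growth, determined with a cell viability assay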
# Description: SANGER: Inhibition of human LB1047-RCC cell growth in a cell viability assay.
# SW 962 = format: functional, cell-based;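 also: growth inhibition of human SW962 cells, read out by a cell viability assay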
# Description: SANGER: Inhibition of human SW962 cell growth in a cell viability assay.
# SF-539 = format: functional, cell-based;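 also: Read-out is a cell viability assay, with IC50 reflecting inhibition of cell growth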
# Description: SANGER: Inhibition of human SF539 cell growth in a cell viability assay.
# KALS-1 = format: functional, cell-based;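 also: growth inhibition of KALS-1 cells, determined with a cell viability assay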
# Description: SANGER: Inhibition of human KALS-1 cell growth in a cell viability assay.
# ONS-76 = format: functional, cell-based;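 also: growth inhibition of human ONS-76 cells, read out with a cell viability assay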
# Description: SANGER: Inhibition of human ONS-76 cell growth in a cell viability assay.
# MSTO-211H = format: functional, cell-based
# Description: SANGER: Inhibition of human MSTO-211H cell growth in a cell viability assay.
# RPMI-8866 = format: functional, cell-based
# Description: SANGER: Inhibition of human RPMI-8866 cell growth in a cell viability assay.
# TE-11 = format: functional, cell-based;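 also: growth inhibition of human TE-11 cells, read out by a cell viability assay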
# Description: SANGER: Inhibition of human TE-11 cell growth in a cell viability assay.
# GOTO = format: functional, cell-based;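 also: growth inhibition of GOTO cells, read out by a cell viability assay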
# Description: SANGER: Inhibition of human GOTO cell growth in a cell viability assay.
# LS-1034 = format: functional, cell-based
# Description: SANGER: Inhibition of human LS-1034 cell growth in a cell viability assay.
# NCI-H1155 = format: functional, cell-based;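 also: cell growth inhibition measured by a viability assay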
# Description: SANGER: Inhibition of human NCI-H1155 cell growth in a cell viability assay.
# NTERA-2-cl-D1 = format: functional, cell-based;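 also: inhibition of cell growth, measured with a cell viability assay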
# Description: SANGER: Inhibition of human NTERA-S-cl-D1 cell growth in a cell viability assay.
# HCE-4 = format: functional, cell-based;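 also: cell viability assay measuring inhibition of growth in the human HCE-4 cell line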
# Description: SANGER: Inhibition of human HCE-4 cell growth in a cell viability assay.
# TK-10 = format: functional, cell-based;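 also: growth inhibition of TK-10 cells, read out in a cell viability assay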
# Description: SANGER: Inhibition of human TK10 cell growth in a cell viability assay.
# KGN = format: functional, cell-based;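 also: growth inhibition of KGN cells, read out with a cell viability assay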
# Description: SANGER: Inhibition of human KGN cell growth in a cell viability assay.
# HCE-T = format: functional, cell-based;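 also: cell viability assay read-out, reporting inhibition of HCE-T cell growth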
# Description: SANGER: Inhibition of human HCE-T cell growth in a cell viability assay.
# C8166 = format: functional, cell-based;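 also: growth inhibition of human C8166 cells measured by a cell viability assay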
# Description: SANGER: Inhibition of human C8166 cell growth in a cell viability assay.
# OMC-1 = format: functional, cell-based;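 also: growth inhibition of the OMC-1 cell line, measured by a cell viability assay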
# Description: SANGER: Inhibition of human OMC-1 cell growth in a cell viability assay.
# D283 Med = format: functional, cell-based
# Description: SANGER: Inhibition of human D-283MED cell growth in a cell viability assay.
# JVM-3 = format: functional, cell-based;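 also: growth inhibition of human JVM-3 cells, read out with a cell viability assay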
# Description: SANGER: Inhibition of human JVM-3 cell growth in a cell viability assay.
# KURAMOCHI = format: functional, cell-based;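 also: growth inhibition of KURAMOCHI cells, read out with a cell viability assay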
# Description: SANGER: Inhibition of human KURAMOCHI cell growth in a cell viability assay.
# D-502MG = format: functional, cell-based
# Description: SANGER: Inhibition of human D-502MG cell growth in a cell viability assay.
# OS-RC-2 = format: functional, cell-based;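 also: growth inhibition of human OS-RC-2 cells, measured by a cell viability assay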
# Description: SANGER: Inhibition of human OS-RC-2 cell growth in a cell viability assay.
# KLE = format: functional, cell-based;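 also: growth inhibition of human KLE cells, read out with a cell viability assay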
# Description: SANGER: Inhibition of human KLE cell growth in a cell viability assay.
# DMS-114 = format: functional, cell-based
# SK-N-DZ = format: functional, cell-based;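 also: growth inhibition of the cancer cell line, read out through a viability assay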
# Description: SANGER: Inhibition of human SK-N-DZ cell growth in a cell viability assay.
# MN-60 = format: functional, cell-based;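 also: growth inhibition of the MN-60 cell line, determined with a cell viability assay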
# Description: SANGER: Inhibition of human MN-60 cell growth in a cell viability assay.
# L-428 = format: functional, cell-based
# Description: SANGER: Inhibition of human L-428 cell growth in a cell viability assay.
# SK-MEL-1 = format: functional, cell-based;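 also: growth inhibition of human SK-MEL-1 cells, read out by a cell viability assay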
# Description: SANGER: Inhibition of human SK-MEL-1 cell growth in a cell viability assay.
# KG-1 = format: functional, cell-based;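 also: growth inhibition of KG-1 cells, read out by a cell viability assay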
# Description: SANGER: Inhibition of human KG-1 cell growth in a cell viability assay.
# HCC1187 = format: functional, cell-based;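 also: growth inhibition of HCC1187 cells, read out with a cell viability assay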
# Description: SANGER: Inhibition of human HCC1187 cell growth in a cell viability assay.
# SK-NEP-1 = format: functional, cell-based;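 also: growth inhibition of human SK-NEP-1 cells, read out by a cell viability assay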
# Description: SANGER: Inhibition of human SK-NEP-1 cell growth in a cell viability assay.
# NCI-H1355 = format: functional, cell-based;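 also: growth inhibition of human NCI-H1355 cells, read out by a cell viability assay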
# Description: SANGER: Inhibition of human NCI-H1355 cell growth in a cell viability assay.
# KNS-42 = format: functional, cell-based;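 also: growth inhibition of KNS-42 cells, read out with a cell viability assay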
# Description: SANGER: Inhibition of human KNS-42 cell growth in a cell viability assay.
# KARPAS-45 = format: functional, cell-based;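 also: inhibition of cell line growth, read out through a viability assay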
# Description: SANGER: Inhibition of human KARPAS-45 cell growth in a cell viability assay.
# CTV-1 = format: functional, cell-based;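 also: growth inhibition of the cell line, read out with a cell viability assay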
# Description: SANGER: Inhibition of human CTV-1 cell growth in a cell viability assay.
# EOL1 = format: functional, cell-based;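 also: growth inhibition of EoL-1 cells, read out by a cell viability assay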
# Description: SANGER: Inhibition of human EoL-1-cell cell growth in a cell viability assay.
# ML-2 = format: functional, cell-based;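 also: growth inhibition of ML-2 cells, measured with a cell viability readout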
# Description: SANGER: Inhibition of human ML-2 cell growth in a cell viability assay.
# JVM-2 = format: functional, cell-based
# Description: SANGER: Inhibition of human JVM-2 cell growth in a cell viability assay.
# NCI-H209 = format: functional, cell-based
# Description: SANGER: Inhibition of human NCI-H209 cell growth in a cell viability assay.
structure (smiles),measurement,setting,value
O=c1cc(N2CCOCC2)oc2c(-c3cccc4c3sc3ccccc34)cccc12,IC50,CTB-1,1120 nM
same,IC50,KS-1,> 2000 nM
same,IC50,SNB-75,> 2000 nM
same,IC50,HOP-62,> 2000 nM
same,IC50,HuTu80,> 2000 nM
same,IC50,ES3,> 2000 nM
same,IC50,MS-1,> 2000 nM
same,IC50,NOMO-1,> 2000 nM
same,IC50,KP-N-YS,1140 nM
same,IC50,NCI-H1648,> 2000 nM
same,IC50,A388,> 2000 nM
same,IC50,SK-N-FI,> 2000 nM
same,IC50,KINGS-1,> 2000 nM
same,IC50,SCC-15,> 2000 nM
same,IC50,GCIY,> 2000 nM
same,IC50,MHH-PREB-1,> 2000 nM
same,IC50,CAS-1,> 2000 nM
same,IC50,A3-KAW,> 2000 nM
same,IC50,Calu-6,> 2000 nM
same,IC50,DU-4475,> 2000 nM
same,IC50,ES5,> 2000 nM
same,IC50,SJSA-1,> 2000 nM
same,IC50,LB1047-RCC,> 2000 nM
same,IC50,SW 962,> 2000 nM
same,IC50,SF-539,> 2000 nM
same,IC50,KALS-1,> 2000 nM
same,IC50,ONS-76,> 2000 nM
same,IC50,MSTO-211H,> 2000 nM
same,IC50,RPMI-8866,> 2000 nM
same,IC50,TE-11,> 2000 nM
same,IC50,GOTO,> 2000 nM
same,IC50,LS-1034,> 2000 nM
same,IC50,NCI-H1155,> 2000 nM
same,IC50,NTERA-2-cl-D1,> 2000 nM
same,IC50,HCE-4,> 2000 nM
same,IC50,TK-10,> 2000 nM
same,IC50,KGN,> 2000 nM
same,IC50,HCE-T,> 2000 nM
same,IC50,C8166,> 2000 nM
same,IC50,OMC-1,> 2000 nM
same,IC50,D283 Med,> 2000 nM
same,IC50,JVM-3,> 2000 nM
same,IC50,KURAMOCHI,> 2000 nM
same,IC50,D-502MG,> 2000 nM
same,IC50,OS-RC-2,> 2000 nM
same,IC50,KLE,> 2000 nM
same,IC50,DMS-114,> 2000 nM
same,IC50,SK-N-DZ,> 2000 nM
same,IC50,MN-60,> 2000 nM
same,IC50,L-428,> 2000 nM
same,IC50,SK-MEL-1,1790 nM
same,IC50,KG-1,> 2000 nM
same,IC50,HCC1187,> 2000 nM
same,IC50,SK-NEP-1,> 2000 nM
same,IC50,NCI-H1355,> 2000 nM
same,IC50,KNS-42,> 2000 nM
Cn1c(=O)n(-c2ccc(C(C)(C)C#N)cc2)c2c3cc(-c4cnc5ccccc5c4)ccc3ncc21 [DACTOLISIB],IC50,CTB-1,24.7 nM
same,IC50,KS-1,44.7 nM
same,IC50,KARPAS-45,13.5 nM
same,IC50,SNB-75,54.3 nM
same,IC50,ES3,25.2 nM
same,IC50,MS-1,108 nM
same,IC50,NOMO-1,45.9 nM
same,IC50,KP-N-YS,185 nM
same,IC50,NCI-H1648,113 nM
same,IC50,A388,250 nM
same,IC50,SK-N-FI,148 nM
same,IC50,KINGS-1,82.3 nM
same,IC50,CTV-1,32.8 nM
same,IC50,EOL1,13.9 nM
same,IC50,SCC-15,174 nM
same,IC50,GCIY,50.7 nM
same,IC50,MHH-PREB-1,9.12 nM
same,IC50,CAS-1,207 nM
same,IC50,A3-KAW,28.6 nM
same,IC50,Calu-6,> 2000 nM
same,IC50,DU-4475,9.44 nM
same,IC50,ES5,14.7 nM
same,IC50,SJSA-1,38.5 nM
same,IC50,LB1047-RCC,38.8 nM
same,IC50,SW 962,26.8 nM
same,IC50,SF-539,52.3 nM
same,IC50,KALS-1,82.5 nM
same,IC50,ONS-76,29.1 nM
same,IC50,MSTO-211H,63.5 nM
same,IC50,RPMI-8866,72.8 nM
same,IC50,TE-11,56 nM
same,IC50,ML-2,60.6 nM
same,IC50,GOTO,250 nM
same,IC50,LS-1034,491 nM
same,IC50,NCI-H1155,48.3 nM
same,IC50,NTERA-2-cl-D1,43 nM
same,IC50,HCE-4,262 nM
same,IC50,TK-10,100 nM
same,IC50,KGN,56.3 nM
same,IC50,HCE-T,83.7 nM
same,IC50,C8166,> 2000 nM
same,IC50,OMC-1,100 nM
same,IC50,D283 Med,49.6 nM
same,IC50,JVM-3,30.8 nM
same,IC50,KURAMOCHI,266 nM
same,IC50,D-502MG,106 nM
same,IC50,OS-RC-2,16.5 nM
same,IC50,KLE,252 nM
same,IC50,JVM-2,> 2000 nM
same,IC50,DMS-114,125 nM
same,IC50,SK-N-DZ,> 2000 nM
same,IC50,MN-60,38 nM
same,IC50,NCI-H209,17.3 nM
same,IC50,L-428,275 nM
same,IC50,SK-MEL-1,> 2000 nM
same,IC50,KG-1,84.2 nM
same,IC50,HCC1187,576 nM
same,IC50,SK-NEP-1,34.2 nM
same,IC50,NCI-H1355,46.3 nM
same,IC50,KNS-42,144 nM
